Laboratory results as given in US10150737B2, “Compounds for controlling arthropods” (priority 2013, dated 2018).

Assays:
Boophilus microplus = Boophilus microplus - injection test; type: in vivo; settings: application rate 20 μg/animal; injection into engorged adult female ticks; after 7 days
Procedure: (§1) Solvent: dimethyl sulphoxide
To produce an appropriate active ingredient formulation, 10 mg of active ingredient are mixed with 0.5 ml of solvent and the concentrate is diluted with solvent to the desired concentration.
1 μl of the active ingredient solution is injected into the abdomen of 5 engorged adult female cattle ticks (Boophilus microplus). The animals are transferred into dishes and kept in a climate-controlled room.
Efficacy is assessed after 7 days by laying of fertile eggs. Eggs which are not visibly fertile are stored in a climate-controlled cabinet until the larvae hatch after about 42 days. An efficacy of 100% means that none of the ticks has laid any fertile eggs; 0% means that all the eggs are fertile.

Spodoptera frugiperda = Spodoptera frugiperda - spray test; type: in vivo; settings: caterpillars on maize leaf discs, after 7 days
Procedure: (§2) Solvent: 78.0 parts by weight of acetone and 1.5 parts by weight of dimethylformamide
(§3) Emulsifier: alkylaryl polyglycol ether
(§4) To produce an appropriate active ingredient formulation, 1 part by weight of active ingredient is dissolved using the specified parts by weight of solvent and made up with water containing an emulsifier concentration of 1000 ppm until the desired concentration is attained. To produce further test concentrations, the preparation is diluted with emulsifier-containing water.
Leaf discs of maize (Zea mays) are sprayed with an active ingredient formulation of the desired concentration and, after drying, populated with caterpillars of the armyworm (Spodoptera frugiperda).
After 7 days, efficacy in % is determined. 100% means that all the caterpillars have been killed; 0% means that no caterpillars have been killed.

Phaedon cochleariae = Phaedon cochleariae - spray test; type: in vivo; settings: larvae on Chinese cabbage leaf discs, after 7 days
Procedure: as §2, §3, §4
Discs of Chinese cabbage leaves (Brassica pekinensis) are sprayed with an active ingredient formulation of the desired concentration and, after drying, populated with larvae of the mustard beetle (Phaedon cochleariae).
After 7 days, efficacy in % is determined. 100% means that all the beetle larvae have been killed; 0% means that no beetle larvae have been killed.

[1] = logP determination by HPLC on a reversed-phase column (C18); type: physicochemical; settings: for logP^a): HPLC-MS method a); for log P: HPLC-MS; for logP: HPLC, C18 reversed phase, acetonitrile/water with formic acid, EEC Directive 79/831 Annex V.A8
Lucilia cuprina = Lucilia cuprina test; type: in vivo; settings: application rate 100 ppm; L1 larvae; after 2 days
Procedure: as §1
To produce an appropriate active ingredient formulation, 10 mg of active ingredient are mixed with 0.5 ml of dimethyl sulphoxide, and the concentrate is diluted with water to the desired concentration.
About 20 L1 larvae of the Australian sheep blowfly (Lucilia cuprina) are transferred into a test vessel containing minced horsemeat and the active ingredient preparation of the desired concentration.
After 2 days, the kill in % is determined. 100% means that all the larvae have been killed; 0% means that none of the larvae have been killed.

Ctenocephalides felis = Ctenocephalides felis - oral test; type: in vivo; settings: application rate 100 ppm in citrated cattle blood; after 2 days
Procedure: as §1
For the purpose of producing an appropriate active ingredient formulation, 10 mg of active ingredient are mixed with 0.5 ml of dimethyl sulphoxide. Dilution with citrated cattle blood gives the desired concentration.
About 20 unfed adult cat fleas (Ctenocephalides felis) are placed into a chamber which is closed at the top and bottom with gauze. A metal cylinder whose bottom end is closed with parafilm is placed onto the chamber. The cylinder contains the blood/active ingredient preparation, which can be imbibed by the fleas through the parafilm membrane.
After 2 days, the kill in % is determined. 100% means that all of the fleas have been killed; 0% means that none of the fleas have been killed.

Tetranychus urticae = Tetranychus urticae - spray test, OP-resistant; type: in vivo; settings: bean leaf discs, after 6 days
Procedure: as §2, §3, §4
Discs of bean leaves (Phaseolus vulgaris) infested by all stages of the greenhouse red spider mite (Tetranychus urticae) are sprayed with an active ingredient formulation of the desired concentration.
After 6 days, efficacy in % is determined. 100% means that all the spider mites have been killed; 0% means that none of the spider mites have been killed.

[2] = reversed-phase column (C18), Table I-T3

| Compound | efficacy (Spodoptera frugiperda; application rate 100 g/ha) | efficacy (Phaedon cochleariae; application rate 100 g/ha) | logP^a) [1] | log P [1, 2] | efficacy (Tetranychus urticae; application rate 100 g/ha) | also measured |
| --- | --- | --- | --- | --- | --- | --- |
| Cc1cc(C(F)(C(F)(F)F)C(F)(F)F)cc(C)c1-c1ccn(-c2ccc(Cl)c(C(=O)NC3(C#N)CC3)c2)n1 [I-T2-2] | 100% | 100% | 4.8 |  |  | efficacy (laying of fertile eggs) (Boophilus microplus): 100% |
| Cc1cc(C(F)(C(F)(F)F)C(F)(F)F)cc(C)c1-n1cc(-c2ccc(Cl)c(C(=O)NCC(=O)NCC(F)(F)F)c2)cn1 [I-T3-6] |  | 100% | 4.1 |  |  | efficacy (kill) (Lucilia cuprina): 100%; efficacy (laying of fertile eggs) (Boophilus microplus): 100%; logP^a) [1, 2]: 4.1 |
| Cc1cc(C(F)(C(F)(F)F)C(F)(F)F)cc(C)c1-n1cc(-c2cc(C(=O)NC3CC3)c(F)cc2Cl)cn1 [I-T3-11] |  |  | 4.9 |  |  | efficacy (laying of fertile eggs) (Boophilus microplus): 100%; efficacy (kill) (Ctenocephalides felis): 95%; logP^a) [1, 2]: 4.9 |
| Cc1cc(C(F)(C(F)(F)F)C(F)(F)F)cc(C)c1-n1cc(-c2cc(C(=O)NC3CC3)cc(C(F)(F)F)c2)cn1 [I-T3-15] |  |  | 4.9 |  |  | efficacy (kill) (Lucilia cuprina): 100%; efficacy (laying of fertile eggs) (Boophilus microplus): 100%; efficacy (Phaedon cochleariae; application rate 500 g/ha): 100%; efficacy (kill) (Ctenocephalides felis): 90%; logP^a) [1, 2]: 4.9 |
| Cc1cc(C(F)(C(F)(F)F)C(F)(F)F)cc(C)c1-n1cc(-c2cc(C(=O)NC3(C#N)CC3)ccc2F)cn1 [I-T3-19] |  |  | 4.3 |  |  | efficacy (laying of fertile eggs) (Boophilus microplus): 100%; efficacy (Spodoptera frugiperda; application rate 500 g/ha): 100%; efficacy (Phaedon cochleariae; application rate 500 g/ha): 100%; efficacy (kill) (Ctenocephalides felis): 95%; logP^a) [1, 2]: 4.3 |
| N#CC1(NC(=O)c2cccc(-c3cnn(-c4c(Cl)cc(C(F)(C(F)(F)F)C(F)(F)F)cc4Cl)c3)c2F)CC1 [I-T3-22] |  |  | 4.1 |  |  | efficacy (Tetranychus urticae; application rate 500 g/ha): 100%; efficacy (Spodoptera frugiperda; application rate 500 g/ha): 100%; efficacy (Phaedon cochleariae; application rate 500 g/ha): 100%; logP^a) [1, 2]: 4.1 |
| O=C(NCC(F)(F)F)c1cc(-c2cnn(-c3ccc(C(F)(C(F)(F)F)C(F)(F)F)cc3Cl)c2)ccc1Cl [I-T3-32] |  |  | 4.7 |  |  | efficacy (kill) (Lucilia cuprina): 100%; efficacy (laying of fertile eggs) (Boophilus microplus): 100%; efficacy (kill) (Ctenocephalides felis): 100%; logP^a) [1, 2]: 4.7 |
| O=C(NCCC(F)(F)F)c1cc(-c2cnn(-c3ccc(C(F)(C(F)(F)F)C(F)(F)F)cc3Cl)c2)ccc1Cl [I-T3-33] |  |  | 4.7 |  |  | efficacy (kill) (Lucilia cuprina): 100%; efficacy (laying of fertile eggs) (Boophilus microplus): 100%; efficacy (kill) (Ctenocephalides felis): 100%; logP^a) [1, 2]: 4.7 |
| O=C(NC1CC1)c1cc(-c2cnn(-c3ncc(C(F)(F)F)cc3Cl)c2)ccc1Cl [I-T3-60] |  |  | 3.2 |  |  | efficacy (kill) (Lucilia cuprina): 90%; efficacy (laying of fertile eggs) (Boophilus microplus): 100%; efficacy (kill) (Ctenocephalides felis): 90%; logP^a) [1, 2]: 3.2 |
| O=C(NC1CC1)c1cc(-c2cnn(-c3ncc(C(F)(C(F)(F)F)C(F)(F)F)cc3Cl)c2)ccc1Cl [I-T3-152] | 100% | 100% |  | 4.1 |  | logP^a) ([1]; reversed-phase column (C18)): 4.1 |
| N#CC1(NC(=O)c2cc(-c3cnn(-c4c(Cl)cc(C(F)(F)F)cc4[N+](=O)[O-])c3)ccc2Cl)CC1 [I-T3-169] | 83% | 100% |  | 3.2 | 100% |  |
| CCSc1cc(C(F)(F)F)cc(Cl)c1-n1cc(-c2ccc(Cl)c(C(=O)NC3CC3)c2)cn1 [I-T3-172] |  | 100% |  | 3.9 | 90% |  |
| CCSc1cc(C(F)(F)F)cc(C#N)c1-n1cc(-c2ccc(Cl)c(C(=O)NC3(C#N)CC3)c2)cn1 [I-T3-177] | 83% | 100% |  | 3.4 | 100% |  |
| CCS(=O)(=O)c1cc(C(F)(F)F)cc(Cl)c1-n1cc(-c2ccc(Cl)c(C(=O)NC3CC3)c2)cn1 [I-T3-178] |  | 100% |  | 3.2 | 100% |  |
| CCS(=O)(=O)c1cc(C(F)(F)F)cc(C#N)c1-n1cc(-c2ccc(Cl)c(C(=O)NC3CC3)c2)cn1 [I-T3-180] |  | 100% |  | 2.8 | 100% |  |
| CC[S+]([O-])c1cc(C(F)(F)F)cc(C#N)c1-n1cc(-c2ccc(Cl)c(C(=O)NC3CC3)c2)cn1 (centres unmarked) [I-T3-181] |  | 100% |  | 2.7 | 100% |  |
| CCS(=O)(=O)c1cc(C(F)(F)F)cc(Cl)c1-n1cc(-c2ccc(Cl)c(C(=O)NC3(C#N)CC3)c2)cn1 [I-T3-183] |  | 100% |  | 3.1 | 100% |  |
| CCS(=O)(=O)c1cc(C(F)(F)F)cc(C#N)c1-n1cc(-c2ccc(Cl)c(C(=O)NC3(C#N)CC3)c2)cn1 [I-T3-190] |  | 100% |  | 2.9 | 100% |  |
| CCSc1cc(C(F)(C(F)(F)F)C(F)(F)F)cc(SCC)c1-n1cc(-c2ccc(Cl)c(C(=O)NC3(C#N)CC3)c2)cn1 [I-T3-191] | 100% | 100% |  | 4.7 |  |  |
| CCSc1cc(C(F)(C(F)(F)F)C(F)(F)F)cc(Cl)c1-n1cc(-c2ccc(Cl)c(C(=O)NC3(C#N)CC3)c2)cn1 [I-T3-192] | 100% | 100% |  | 4.5 | 100% |  |
| CC[S+]([O-])c1cc(C(F)(C(F)(F)F)C(F)(F)F)cc(Cl)c1-n1cc(-c2ccc(Cl)c(C(=O)NC3(C#N)CC3)c2)cn1 (centres unmarked) [I-T3-195] |  | 100% |  | 3.8 | 90% |  |
| Cc1cc(C(F)(C(F)(F)F)C(F)(F)F)cc(C(F)(F)F)c1-n1cc(-c2cnc(Cl)c(C(=O)NCC3(C#N)CC3)c2)cn1 [I-T3-197] | 100% | 100% |  | 4.0 | 100% |  |
| CCS(=O)(=O)c1cc(C(F)(C(F)(F)F)C(F)(F)F)cc(S(=O)(=O)CC)c1-n1cc(-c2ccc(Cl)c(C(=O)NC3(C#N)CC3)c2)cn1 [I-T3-198] | 100% | 100% |  | 3.7 |  |  |
| O=C(NC1CC1)c1cc(-c2cnn(-c3c(Cl)cc(C(O)(C(F)(F)F)C(F)(F)F)cc3Cl)c2)cnc1Cl [I-T3-221] |  | 100% |  | 3.0 | 100% |  |
| N#CC1(NC(=O)c2cc(-c3cnn(-c4c(Cl)cc(C(O)(C(F)(F)F)C(F)(F)F)cc4Cl)c3)cnc2Cl)CC1 [I-T3-222] |  | 100% |  | 3.0 | 100% |  |
| CN(C(=O)c1cc(-c2cnn(-c3c(Cl)cc(C(O)(C(F)(F)F)C(F)(F)F)cc3Cl)c2)cnc1Cl)C1(C#N)CC1 [I-T3-223] |  | 100% |  | 3.3 | 100% |  |
| CN(C(=O)c1cc(-c2ccn(-c3c(Cl)cc(C(F)(C(F)(F)F)C(F)(F)F)cc3Cl)c2)cnc1Cl)C1CC1 [I-T46-3] | 100% | 100% |  |  |  | logP [1]: 5.0 |
| O=C(NC1CC1)c1cc(-c2ccn(-c3c(Cl)cc(C(F)(C(F)(F)F)C(F)(F)F)cc3Cl)c2)cnc1Cl [I-T46-4] | 100% | 100% |  |  | 100% | logP [1]: 4.5 |
| N#CC1(NC(=O)c2cc(-c3ccn(-c4c(Cl)cc(C(F)(C(F)(F)F)C(F)(F)F)cc4Cl)c3)cnc2Cl)CC1 [I-T46-5] | 100% | 100% |  |  | 100% | logP [1]: 4.4 |
| CN(C(=O)c1cc(-c2ccn(-c3c(Cl)cc(C(F)(C(F)(F)F)C(F)(F)F)cc3Cl)c2)cnc1Cl)C1(C#N)CC1 [I-T46-6] | 100% | 100% |  |  | 100% | logP [1]: 4.8 |
